Experimental data taken from patent US8048879B2, “Substituted 4,5,6,7-tetrahydro-isoxazolo[4,5-c]pyridine compounds and use thereof for producing medicaments” (Gruenenthal GmbH, priority 2005, dated 2011).

These molecules were tested against T1, 5-HT transporter (Rattus norvegicus, UniProt P31652) (assay: 5-HT uptake inhibition, synaptosomes from rat brain (medulla and pons)).
T1 construct: from tissue; host or cells: rat brain (medulla and pons), synaptosomes, P2 fraction
Assay type: biochemical
Excerpt: b) Method for Determining Noradrenalin and 5-HT Uptake Inhibition:
Synaptosomes from rat brain regions are freshly isolated for in vitro studies, as described in the publication “The isolation of nerve endings from brain” by E. G. Gray and V. P. Whittaker, J. Anatomy 96, pages 79-88, 1962. The corresponding literature description is hereby introduced as a reference and is deemed to be part of the disclosure.
The tissue (hypothalamus for the determination of noradrenalin uptake inhibition and medulla and pons for the determination of 5-HT uptake inhibition) is homogenised in ice-cooled 0.32 M sucrose (100 mg of tissue/1 mL) in a glass homogeniser with Teflon pestle using five complete up and down strokes at 840 revolutions/minute.
The homogenate is centrifuged at 4° C. for 10 minutes at 1000 g. After subsequent centrifugation at 17000 g for 55 minutes, the synaptosomes (P2 fraction) are obtained, which are resuspended in 0.32 M […] (0.5 mL/100 mg of original weight).
The particular uptake is measured in a 96-well microtitre plate. The volume is 250 μL and the incubation proceeds at room temperature (approx. 20-25° C.) under an O2 atmosphere.
The incubation time is 7.5 minutes for [^3H]-NA and 5 minutes for [^3H]-5-HT. The 96 samples are then filtered through a Unifilter GF/B® microtitre plate (Packard) and washed with 200 mL of incubated buffer using a “Brabdel MPXRI-96T Cell-Harvester”. The Unifilter GF/B plate is dried for 1 hour at 55° C. The plate is then sealed with a Back Seal® (Packard) and 35 μL of scintillation fluid are added per well (Ultima Gold®, Packard). After sealing with a top Seal® (Packard) and establishing an equilibrium (around 5 hours), radioactivity is determined in a “Trilux 1450 Microbeta” (Wallac).
The quantity of protein used in the above determination corresponds to the values known from the literature, as for example described in “Protein measurement with the folin phenol reagent”, Lowry et al., J. Biol. Chem., 193, 265-275, 1951.
A detailed description of the method may additionally be found in the literature, for example in M. Ch. Frink, H.-H. Hennies, W. Engelberger, M. Haurand and B. Wilffert (1996) Arzneim.-Forsch./Drug Res. 46 (III), 11, 1029-1036.
The following characteristics were determined for the NA or 5-HT transporter: […]

T1 sequence (P31652 whole entry): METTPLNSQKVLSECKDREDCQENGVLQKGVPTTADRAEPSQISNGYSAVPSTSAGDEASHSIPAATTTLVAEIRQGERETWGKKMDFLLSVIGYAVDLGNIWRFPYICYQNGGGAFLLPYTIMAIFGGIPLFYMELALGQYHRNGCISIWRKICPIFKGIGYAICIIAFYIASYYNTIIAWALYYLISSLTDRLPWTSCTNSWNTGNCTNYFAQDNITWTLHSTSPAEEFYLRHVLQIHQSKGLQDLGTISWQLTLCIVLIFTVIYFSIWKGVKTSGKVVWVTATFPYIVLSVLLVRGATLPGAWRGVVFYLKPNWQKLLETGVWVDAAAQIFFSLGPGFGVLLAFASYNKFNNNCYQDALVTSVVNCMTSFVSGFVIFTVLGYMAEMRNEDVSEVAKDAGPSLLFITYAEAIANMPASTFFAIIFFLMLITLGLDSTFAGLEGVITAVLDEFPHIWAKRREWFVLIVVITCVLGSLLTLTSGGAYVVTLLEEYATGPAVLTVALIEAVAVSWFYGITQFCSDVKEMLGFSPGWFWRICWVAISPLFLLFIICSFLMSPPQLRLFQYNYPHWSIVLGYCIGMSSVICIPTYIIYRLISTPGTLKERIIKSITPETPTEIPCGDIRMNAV

Row | inhibition at 10 µM | Structure (SMILES) | 5-HT uptake (rat), 10 μM, % inhibition
1 | – | COCCNC(=O)c1noc2c1CN(C(=O)Nc1cccc(OC)c1)CC2 [Example 1, 6,7-dihydro-4H-isoxazolo[4,5-c]pyridine-3,5-dicarboxylic acid 3-[(2-methoxy-ethyl) amide] 5-[(3-methoxyphenyl) amide]] | 47%
2 | – | O=C(NC1CCCC1)c1noc2c1CN(C(=O)NCc1ccc(F)cc1)CC2 [Example 2, 6,7-dihydro-4H-isoxazolo[4,5-c]pyridine-3,5-dicarboxylic acid 3-cyclopentyl amide 5-(4-fluorobenzyl amide)] | 41%
3 | – | O=C(Nc1ccccc1)c1noc2c1CN(C(=O)Nc1ccc(OC(F)(F)F)cc1)CC2 [Example 3, 6,7-dihydro-4H-isoxazolo[4,5-c]pyridine-3,5-dicarboxylic acid 3-phenyl amide 5-[(4-trifluoromethoxy-phenyl) amide]] | 45%
4 | – | COCCNC(=O)c1noc2c1CN(C(=O)Nc1ccc(C)c([N+](=O)[O-])c1)CC2 [Example 5, 6,7-dihydro-4H-isoxazolo[4,5-c]pyridine-3,5-dicarboxylic acid 3-[(2-methoxy-ethyl) amide]5-[(4-methyl-3-nitro-phenyl) amide]] | 47%
5 | – | CCOC(=O)CCNC(=O)c1noc2c1CN(C(=O)Nc1cc(F)ccc1F)CC2 [Example 6] | 43%
6 | – | CCCCOc1ccc(NC(=O)N2CCc3onc(C(=O)NCCOC)c3C2)cc1 [Example 7, 6,7-dihydro-4H-isoxazolo[4,5-c]pyridine-3,5-dicarboxylic acid 5-[(4-butoxy-phenyl) amide] 3-[(2-methoxy-ethyl) amide]] | 44%
7 | – | Cc1ccc(NC(=O)N2CCc3onc(C(=O)NCc4cccs4)c3C2)cc1[N+](=O)[O-] [Example 9, 6,7-dihydro-4H-isoxazolo[4,5-c]pyridine-3,5-dicarboxylic acid 5-[(4-methyl-3-nitro-phenyl) amide] 3-[(thiophen-2-ylmethyl) amide]] | 45%
8 | – | CCSCCNC(=O)c1noc2c1CN(C(=O)Nc1cccc(OC)c1)CC2 [Example 11, 6,7-dihydro-4H-isoxazolo[4,5-c]pyridine-3,5-dicarboxylic acid 3-[(2-ethylsulfanyl-ethyl) amide]5-[(3-methoxyphenyl) amide]] | 54%
9 | – | Cc1ccc(NC(=O)N2CCc3onc(C(=O)NCc4ccc(F)cc4)c3C2)cc1[N+](=O)[O-] [Example 14, 6,7-dihydro-4H-isoxazolo[4,5-c]pyridine-3,5-dicarboxylic acid 3-(4-fluorobenzyl amide) 5-[(4-methyl-3-nitro-phenyl) amide]] | 53%
10 | – | CC(=O)c1cccc(NC(=O)N2CCc3onc(C(=O)NCc4ccc(C)o4)c3C2)c1 [Example 15, 6,7-dihydro-4H-isoxazolo[4,5-c]pyridine-3,5-dicarboxylic acid 5-[(3-acetyl-phenyl) amide] 3-[(5-methyl-furan-2-ylmethyl) amide]] | 58%
11 | – | C#CCNC(=O)c1noc2c1CN(C(=O)Nc1ccc(C)c([N+](=O)[O-])c1)CC2 [Example 16, 6,7-dihydro-4H-isoxazolo[4,5-c]pyridine-3,5-dicarboxylic acid 5-[(4-methyl-3-nitro-phenyl) amide]3-prop-2-ynyl amide] | 55%
12 | – | O=C(NCc1ccccc1)c1noc2c1CN(C(=O)Nc1ccccc1)CC2 [Example 17, 6,7-dihydro-4H-isoxazolo[4,5-c]pyridine-3,5-dicarboxylic acid 3-benzyl amide 5-phenyl amide] | 64%
13 | – | C#CCNC(=O)c1noc2c1CN(C(=O)Nc1cccc(F)c1)CC2 [Example 19, 6,7-dihydro-4H-isoxazolo[4,5-c]pyridine-3,5-dicarboxylic acid 5-[(3-fluorophenyl) amide] 3-prop-2-ynyl amide] | 50%
14 | 51% | CCOC(=O)CCNC(=O)c1noc2c1CN(C(=O)Nc1cc(OC)ccc1OC)CC2 [Example 20, 3-{[5-(2,5-dimethoxy-phenylcarbamoyl)-4,5,6,7-tetrahydro-isoxazolo[4,5-c]pyridine-3-carbonyl]-amino}-propionic acid ethyl ester] | –
15 | – | CCOc1ccc(NC(=O)N2CCc3onc(C(=O)NCc4ccc(F)cc4)c3C2)cc1 [Example 21, 6,7-dihydro-4H-isoxazolo[4,5-c]pyridine-3,5-dicarboxylic acid 5-[(4-ethoxy-phenyl) amide] 3-(4-fluorobenzyl amide)] | 56%
16 | – | COc1ccc(Cl)cc1NC(=O)N1CCc2onc(C(=O)NCCc3ccccc3)c2C1 [Example 22, 6,7-dihydro-4H-isoxazolo[4,5-c]pyridine-3,5-dicarboxylic acid 5-[(5-chloro-2-methoxyphenyl) amide] 3-(phenethyl amide)] | 60%
17 | – | CCOC(=O)c1cccc(NC(=O)N2CCc3onc(C(=O)NCc4ccc(C)o4)c3C2)c1 [Example 23, 3-({3-[(5-methyl-furan-2-ylmethyl)-carbamoyl]-6,7-dihydro-4H-isoxazolo[4 5-c]pyridine-5-carbonyl}-amino)-benzoic acid ethyl ester] | 52%
18 | 54% | CCC(C)(CC(=O)O)CC(=O)N1CCc2onc(C(=O)NCCOC)c2C1 (stereo not shown) [Example 26, 3-ethyl-5-[3-(2-methoxy-ethylcarbamoyl)-6,7-dihydro-4H-isoxazolo[4,5-c]pyridin-5-yl]-3-methyl-5-oxo-pentanoic acid] | –
19 | 41% | CC(C)(C)OC(=O)NC(COCc1ccccc1)C(=O)N1CCc2onc(C(=O)NCc3cccnc3)c2C1 (stereo not shown) [Example 27, (1-benzyloxymethyl-2-oxo-2-{3-[(pyridin-3-ylmethyl)-carbamoyl]-6,7-dihydro-4H-isoxazolo[4,5-c]pyridin-5-yl}-ethyl)-carbamic acid tert-butyl ester] | –
20 | 57% | O=C(O)COCC(=O)N1CCc2onc(C(=O)NCc3cccs3)c2C1 [Example 30, (2-oxo-2-{3-[(thiophen-2-ylmethyl)-carbamoyl]-6,7-dihydro-4H-isoxazolo[4,5-c]pyridin-5-yl}-ethoxy)acetic acid] | –
21 | 57% | Cc1ccc(CNC(=O)c2noc3c2CN(C(=O)C(C)(C)CC(=O)O)CC3)o1 [Example 31, 3,3-dimethyl-4-{3-[(5-methyl-furan-2-ylmethyl)-carbamoyl]-6,7-dihydro-4H-isoxazolo[4,5-c]pyridin-5-yl}-4-oxo-butanoic acid] | –
22 | – | O=C(c1noc2c1CN(S(=O)(=O)c1ccc(F)cc1)CC2)N1CCN(c2ncnc3sccc23)CC1 [Example 34] | 74%
23 | 72% | CN(C)CCNC(=O)c1noc2c1CN(C(=O)C=Cc1ccccc1)CC2 [Example 36, 5-(3-phenyl-acryloyl)-4,5,6,7-tetrahydro-isoxazolo[4,5-c]pyridine-3-carboxylic acid (2-dimethylamino-ethyl) amide] | –
24 | 61% | CN(C)CCNC(=O)c1noc2c1CN(C(=O)COc1ccccc1)CC2 [Example 37, 5-(2-phenoxy-acetyl)-4,5,6,7-tetrahydro-isoxazolo[4,5-c]pyridine-3-carboxylic acid (2-dimethylamino-ethyl) amide] | –
25 | 76% | CN(C)CCNC(=O)c1noc2c1CN(C(=O)c1cc(C(C)(C)C)nn1C)CC2 [Example 41, 5-(5-tert-butyl-2-methyl-2H-pyrazole-3-carbonyl)-4,5,6,7-tetrahydro-isoxazolo[4,5-c]pyridine-3-carboxylic acid (2-dimethylamino-ethyl) amide] | –
26 | 85% | CC(=O)Nc1ccc(C(=O)N2CCc3onc(C(=O)NCC4CC4)c3C2)cc1 [Example 45, 5-(4-acetylamino-benzoyl)-4,5,6,7-tetrahydro-isoxazolo[4,5-c]pyridine-3-carboxylic acid cyclopropylmethyl amide] | –
27 | 79% | Cc1nn(-c2ccccc2)nc1C(=O)N1CCc2onc(C(=O)NCc3cccnc3)c2C1 [Example 46, 5-(5-methyl-2-phenyl-2H-[1,2,3]triazole-4-carbonyl)-4,5,6,7-tetrahydro-isoxazolo[4,5-c]pyridine-3-carboxylic acid (pyridin-3-ylmethyl) amide] | –

Row | Structure (SMILES) | inhibition at 10 µM | 5-HT uptake (rat), 10 μM, % inhibition
28 | O=C(c1noc2c1CN(S(=O)(=O)c1ccc(F)cc1)CC2)N1CC=C(c2ccc(F)cc2)CC1 [Example 42, [5-(4-fluoro-benzenesulfonyl)-4,5,6,7-tetrahydro-isoxazolo[4,5-c]pyridin-3-yl]-[4-(4-fluorophenyl)-3,6-dihydro-2H-pyridin-1-yl]-methanone] | 69% | –
